Common to all, as to format: in vivo
Data set [1] concerns Wheat (winter wheat, TRZAW). In words: Method A: safener seed treatment, then post-emergence herbicide, greenhouse pot test, crop damage scored visually. To be noted: 20 days after post-emergence application at BBCH11; herbicide 300 g/ha; safener (mefenpyr-diethyl) seed treatment 0.5 g/kg where combined; vs untreated controls; mean of at least 3 replicates. Here is the method:
(§1) Wheat seeds (winter wheat, TRZAW) were placed in sandy loam soil in pots of a diameter of 7 cm, covered with soil and cultivated in a greenhouse under good growth conditions.
(§2) For the safener seed treatment, sufficient seeds were weighed into screw top glass bottles approximately twice the volume of the seeds.
(§3) The safener (mefenpyr-diethyl, formulated as wettable powder; WP) was weighed out so that the required rates (g a.i./kg seed) would be obtained, dissolved in water (1 ml water per 10 g of seeds), and added to the seeds to produce a slurry.
(§4) The bottles were capped and then placed in an overhead shaker (set at medium speed for up to 1 hour) so that the seeds were evenly coated with the slurry. The bottles were uncapped and the seeds were sown as described above.
Post-emergence application of the herbicide was done when the plants had reached growth stage BBCH11.
(§5) After application, the test plants were kept in the greenhouse under good growth conditions.
(§6) Values in the table below are mean values from at least 3 replicates.

Data set [2] deals with Wheat (winter wheat, TRZAW). In words: Method C: safener seed treatment, then post-emergence herbicide plus safener tank mix, greenhouse pot test, crop damage scored visually. To be noted: 20 days after post-emergence application at BBCH11; herbicide 300 g/ha; safener (mefenpyr-diethyl) seed treatment 0.5 g/kg and 200 g/ha in tank mix where combined; vs untreated controls; mean of at least 3 replicates. Here is the method:
as §1, §2, §3, §4
Post-emergence application was done when the plants had reached growth stage BBCH11.
(§7) The safener (mefenpyr-diethyl) was formulated as wettable powder (WP).
(§8) The compounds were sprayed onto the green parts of the plants as an aqueous suspension at an equivalent water application rate of 300 l/ha with addition of 0.2% wetting agent (Agrotin).
(§9) The combination of herbicide and safener was applied as a tank mix.
as §5, §6

For data set [3], the system named is Wheat (winter wheat, TRZAW). Kind of data set: Prior-art method: post-emergence herbicide with or without safener in tank mix, greenhouse pot test, crop damage scored visually. To be noted: 20 days after post-emergence application at BBCH11; herbicide 300 g/ha; safener (mefenpyr-diethyl) 200 g/ha in tank mix where combined; vs untreated controls; mean of at least 3 replicates.
Source text: 1. Method as Used in the Prior Art
as §1
Post-emergence application was done when the plants had reached growth stage BBCH11 (BBCH is the international coding system for the growth stage of crops and weeds).
as §7, §8, §9, §5, §6

In data set [4] the test system is Wheat (winter wheat, TRZAW). Kind of data set: Method D: safener seed treatment, then pre-emergence herbicide plus safener tank mix, greenhouse pot test, crop damage scored visually. To be noted: 21 days after pre-emergence application to the soil surface; herbicide 300 g/ha; safener (mefenpyr-diethyl) seed treatment 0.5 g/kg and 200 g/ha in tank mix where combined; vs untreated controls; mean of at least 3 replicates. Here is the method:
as §1, §2, §3, §4
The compounds were sprayed to the soil surface as an aqueous suspension at an equivalent water application rate of 300 l/ha with addition of 0.2% wetting agent (Agrotin).
as §9, §5, §6

On to `CC1(C)CON(Cc2ccc(Cl)cc2Cl)C1=O` [Herbicide post-em., 2-(2,4-dichlorophenyl)methyl-4,4-dimethyl-3-isoxazolidinone], for which the “% chlorosis” value came out at 40% in data set [1], 40% in data set [2], 40% in data set [3] and 17% in data set [4]. Also, the “% growth depression” value in data set [1] was 40%; in data set [2], 40%; in data set [3] it was 40%; in data set [4], 27%.

These data come from patent publication US11191265B2, “Method of reducing crop damage” (Bayer CropScience Aktiengesellschaft, priority 2016, dated 2021).
